Results: patent publication US5124146A, “Differential delivery of therapeutic agents across the blood brain barrier” (The State of Oregon Acting by and through the State Board …, priority 1991, dated 1992)
“And” between values parts separate entries of the source, which are not always exact repeats. Identical values can stand only once.

Columns and labels:
antigentamicin antibody = test: precipitable radioactivity (% bound) in tissue and serum after antigentamicin antibody (immune serum); assay type: in vivo
From the text: (§1) Pre: Precipitable radioactivity from serum prior to antibody
(§2) Post: Precipitable radioactivity from serum after antibody administration
(§3) PPer: Precipitable radioactivity from serum after perfusion of rat
(§4) % Bound: Percent precipitable radioactivity from tissue sample

[1] = percent clearance of activity from serum by perfusion; assay type: in vivo, Sprague-Dawley rat; conditions: for C1: percent clearance of activity from serum: individual rat, postperfusion/preperfusion × 100
Procedure: Subsequently, dosages of ^125 I-gentamicin were administered intravenously.
C1: Percent clearance of activity from serum

serum proteins = test: non-specific precipitation/binding of gentamicin to serum proteins and tissue (pre-antibody serum, or non-immune serum); assay type: in vivo, Sprague-Dawley rat; conditions: non-immune serum, pre and post serum
From the text: as §1, §2, §3, §4

[2] = injected directly into the rat brain; cited from earlier work

Row | Compound | % Bound: percent precipitable radioactivity from tissue sample, LH (non abscess bearing hemisphere) (antigentamicin antibody; individual rat) | % Bound, Post: precipitable radioactivity from serum after antibody administration (antigentamicin antibody; individual rat, 15 minutes after antibody) | % Bound, P-Per: precipitable radioactivity from serum after perfusion of rat (antigentamicin antibody; individual rat, after perfusion) | % Bound (tissue), AB (abscess), mean value (antigentamicin antibody; mean) [%] | % Bound (tissue), LH (non abscess bearing hemisphere), mean value (antigentamicin antibody; mean) [%] | % Bound, Post: serum precipitation after antibody, mean value (antigentamicin antibody; mean, 15 minutes after antibody) [%] | % Bound, P-Per: serum precipitation after perfusion, mean value (antigentamicin antibody; mean, after perfusion) [%] | C1: percent clearance of activity from serum ([1]; Immune serum) | C1: percent clearance of activity from serum, mean value ([1]; Immune serum) [%] | C1: percent clearance of activity from serum ([1]; Non immune serum) | C1: percent clearance of activity from serum, mean value ([1]; Non immune serum) [%] | non-specific precipitation with serum proteins (in words) (serum proteins) | effect on BBB permeability [2]
1 | gentamicin | 49% and 55% and 52% and 41% and 50% | 97% and 96% and 94% | 75% and 70% and 79% and 77% | 56 | 51 | 96 | 70 | 99% and 97% and 92% and 95% and 94% and 96% | 96 | 84% and 86% and 85% | 85 | nonspecifically precipitates with serum proteins | 
2 | CCCCC/C=C\C/C=C\C/C=C\C/C=C\CCCC(=O)O [arachidonic acid] |  |  |  |  |  |  |  |  |  |  |  |  | increase BBB permeability
